In patent US7531482B2, “Thieno-pyrimidine compounds having fungicidal activity” (Dow AgroSciences LLC, priority 2005, dated 2009):
Where two headings read alike, the source gives them in different places.

Columns and labels:
Type in all cases: in vivo
[1] = test system: Puccinia recondita tritici; assay: Leaf Rust of Wheat (PUCCRT) whole-plant disease control test; conditions: Puccinia recondita, foliar, read-out: PUCCRT disease control
Leptosphaeria nodorum = assay: Glume Blotch of Wheat (LEPTNO) whole-plant disease control test; conditions: Parastagonospora nodorum, foliar, read-out: LEPTNO disease control
[2] = test system: Magnaporthe grisea=Pyricularia oryzae; assay: whole plant or invertebrate; conditions: Pyricularia oryzae, foliar, read-out: PYRIOR disease control, 200 ppm applied to foliage of rice; inoculated one day after treatment
Colletotricum lagenarium = assay: Cucumber Anthracnose (COLLLA) whole-plant disease control test; conditions: Cucumis sativus, foliar, read-out: COLLLA disease control
[3] = test system: Mycosphaerella graminicola=Septoria tritici; assay: Speckled Leaf Blotch of Wheat (SEPTTR) whole-plant disease control test; conditions: Mycosphaerella, foliar, read-out: SEPTTR disease control
Erysiphe cichoracaerum = assay: Cucumber Powdery Mildew (ERYSCI) whole-plant disease control test; conditions: Erysiphe, foliar, read-out: ERYSCI disease control
Phytophthora infestans = assay: whole plant or invertebrate; conditions: Phytophthora infestans, in Solanum lycopersicum, foliar, read-out: PHYTIN disease control, 200 ppm applied to foliage of tomato; inoculated one day after treatment
[4] = 200 ppm applied to foliage of wheat, inoculated one day after treatment
[5] = 200 ppm applied to foliage of cucumber, inoculated one day after treatment
[6] = 75 ppm applied to foliage of wheat

Structure (SMILES)	pest or weed control at 200 ppm [1, 4] [%]	pest or weed control at 200 ppm (Leptosphaeria nodorum; [4]) [%]	pest or weed control at 200 ppm [2] [%]	pest or weed control at 200 ppm (Colletotricum lagenarium; [5]) [%]	pest or weed control at 75 ppm [3, 6] [%]	pest or weed control at 200 ppm (Erysiphe cichoracaerum; [5]) [%]	pest or weed control at 200 ppm (Phytophthora infestans) [%]	pest or weed control at 200 ppm [1] [%]	pest or weed control at 200 ppm (Leptosphaeria nodorum) [%]	pest or weed control at 200 ppm (Colletotricum lagenarium) [%]	pest or weed control at 75 ppm [3] [%]	pest or weed control at 200 ppm (Erysiphe cichoracaerum) [%]
FC(F)(F)c1ccnc(Oc2cccc(CCNc3ncnc4scc(Cl)c34)c2)c1 [Compound 69]	80 to 100	0 to 49	80 to 100	0 to 49	50 to 79	50 to 79	0 to 49					
Cc1cc(OC(F)F)cnc1Oc1ccc(CCNc2ncnc3scc(Cl)c23)cc1 [Compound 70]	80 to 100	80 to 100	80 to 100	80 to 100	80 to 100	0 to 49	50 to 79					
N#Cc1c(Cl)cncc1Oc1ccc(CCNc2ncnc3scc(Cl)c23)cc1 [Compound 71]	80 to 100	80 to 100	80 to 100	80 to 100	80 to 100	50 to 79	0 to 49					
N#Cc1ccncc1Oc1ccc(CCNc2ncnc3scc(Cl)c23)cc1 [Compound 74]	80 to 100	80 to 100	80 to 100	80 to 100	50 to 79	0 to 49	50 to 79					
FC(F)(F)c1cc(Oc2ccc(CCNc3ncnc4scc(Cl)c34)cc2)cc(C(F)(F)F)n1 [Compound 75]	80 to 100	80 to 100	80 to 100	80 to 100	50 to 79	80 to 100	0 to 49					
FC(F)(F)c1cc(Oc2ccc(CCNc3ncnc4scc(Cl)c34)cc2)nc(C(F)(F)F)c1 [Compound 76]	80 to 100	50 to 79	80 to 100	50 to 79	0 to 49	0 to 49	0 to 49					
Clc1csc2ncnc(NCCc3ccc(Oc4cccc(C(Cl)(Cl)Cl)n4)cc3)c12 [Compound 77]	80 to 100	80 to 100	80 to 100	0 to 49	0 to 49	0 to 49	0 to 49					
FC(F)(F)c1ncccc1Oc1ccc(CCNc2ncnc3scc(Cl)c23)cc1 [Compound 78]	80 to 100	80 to 100	80 to 100	50 to 79	50 to 79	80 to 100	50 to 79					
COC(=O)c1cccc(Oc2ccc(CCNc3ncnc4scc(Cl)c34)cc2)n1 [Compound 79]	80 to 100	0 to 49	80 to 100	0 to 49	0 to 49	0 to 49	80 to 100					
CCOC(=O)c1cccc(Oc2ccc(CCNc3ncnc4scc(Cl)c34)cc2)n1 [Compound 80]	80 to 100	0 to 49	80 to 100	0 to 49	0 to 49	0 to 49	80 to 100					
COc1cc(C#N)cc(Oc2ccc(CCNc3ncnc4scc(Cl)c34)cc2)n1 [Compound 81]	80 to 100	80 to 100	80 to 100	50 to 79	50 to 79	50 to 79	0 to 49					
Cc1cccc(Oc2ccc(CCNc3ncnc4scc(Cl)c34)cc2)n1 [Compound 85]	80 to 100	80 to 100	80 to 100	50 to 79	80 to 100	80 to 100	80 to 100					
Clc1csc2ncnc(NCCc3ccc(Oc4ncnc5scnc45)cc3)c12 [Compound 86]	80 to 100	50 to 79	50 to 79	0 to 49	80 to 100	50 to 79	80 to 100					
COc1cc(Oc2ccc(CCNc3ncnc4scc(Cl)c34)cc2)c(Br)cn1 [Compound 87]	80 to 100	50 to 79	80 to 100	0 to 49	50 to 79	80 to 100	50 to 79					
COc1cc(C(F)(F)F)cc(Oc2ccc(CC(C)Nc3ncnc4scc(Cl)c34)cc2)n1 (centres unmarked) [Compound 88]	80 to 100	0 to 49	80 to 100	50 to 79	50 to 79	80 to 100	0 to 49					
Clc1csc2ncnc(NCCc3ccc(Oc4cccc(-n5cccn5)n4)cc3)c12 [Compound 89]	80 to 100	80 to 100	80 to 100	0 to 49	50 to 79	80 to 100	0 to 49					
CS(=O)(=O)c1cccc(Oc2ccc(CCNc3ncnc4scc(Cl)c34)cc2)n1 [Compound 91]	80 to 100	80 to 100	80 to 100	0 to 49	0 to 49	50 to 79	80 to 100					
CC(Cc1ccc(Oc2c(Cl)cnc(C(F)(F)F)c2Cl)cc1)Nc1ncnc2scc(Cl)c12 (centres unmarked) [Compound 94]	80 to 100	0 to 49	80 to 100	50 to 79	0 to 49	50 to 79	0 to 49					
CS(=O)(=O)c1cc(Oc2ccc(CCNc3ncnc4scc(Cl)c34)cc2)ccn1 [Compound 95]	80 to 100	80 to 100	80 to 100	50 to 79	50 to 79	0 to 49	80 to 100					
N#CCc1cccc(Oc2ccc(CCNc3ncnc4scc(Cl)c34)cc2)n1 [Compound 97]			80 to 100				80 to 100	80 to 100	80 to 100	50 to 79	50 to 79	0 to 49
O=C(Nc1ccc(CCNc2ncnc3scc(Cl)c23)cc1)c1ccnc(Cl)c1 [Compound 99, 2-Chloro-N-{4-[2-(5-chlorothieno[2,3,-d]pyrimidin-4-ylamino)ethyl]phenyl}isonicotinamide]	80 to 100	0 to 49	80 to 100	50 to 79	0 to 49	0 to 49	50 to 79					
N#Cc1nc(F)c(F)c(Oc2ccc(CCNc3ncnc4scc(Cl)c34)cc2)c1F [Compound 103]	50 to 79	50 to 79	50 to 79	50 to 79	0 to 49	0 to 49	0 to 49					
Clc1ccc(COc2ccc(CCNc3ncnc4scc(Cl)c34)cc2)cn1 [Compound 104]	80 to 100	0 to 49	80 to 100	50 to 79	50 to 79	0 to 49	0 to 49					
FC(F)(F)c1ccc(COc2ccc(CCNc3ncnc4scc(Cl)c34)cc2)o1 [Compound 105]	50 to 79	0 to 49	80 to 100	0 to 49	0 to 49	0 to 49	0 to 49					
CC(C)OC(=O)c1cnc(Oc2ccc(CCNc3ncnc4scc(Cl)c34)cc2)c(Cl)c1 [Compound 106]	80 to 100	0 to 49	80 to 100	0 to 49	50 to 79	0 to 49	0 to 49					
CC(C)c1cncnc1COc1ccc(CCNc2ncnc3scc(Cl)c23)cc1 [Compound 107]	80 to 100	0 to 49	80 to 100	0 to 49	50 to 79	0 to 49	80 to 100					
